Source: paper PMC6522510 (Nature Communications, 2019)
Read-outs that look alike come from different tables or passages of the source.

Experiments:
Parameters in all cases: species or system AML cell lines (8); Primary HTS, single concentration about 10 uM, Cell Titer Glo viability; log10 luminescence, per cent inhibition relative to cycloheximide control
Conditions in all cases: 72 h, relative to cycloheximide control, log10 luminescence, inhibitor
CMK = tested on: CMK
MOLM-13 = tested on: MOLM-13
ML-2 = tested on: ML-2
CHRF288-11 = tested on: CHRF288-11
CMS = tested on: CMS
M07e = tested on: M07e
MV4-11 = tested on: MV4-11
U937 = tested on: U937

Compound	CMK %inh (CMK; CMK %inh, 10 µM) [%]	MOLM-13 %inh (MOLM-13; MOLM-13 %inh, 10 µM) [%]	ML-2 %inh (ML-2; ML-2 %inh, 10 µM) [%]	CHRF288-11 %inh (CHRF288-11; CHRF288-11 %inh, 10 µM) [%]	CMS %inh (CMS; CMS %inh, 10 µM) [%]	M07e %inh (M07e; M07e %inh, 10 µM) [%]	MV4-11 %inh (MV4-11; MV4-11 %inh, 10 µM) [%]	U937 %inh (U937; U937 %inh, 10 µM) [%]	CMK %inh (CMK) [%]	MOLM-13 %inh (MOLM-13) [%]	ML-2 %inh (ML-2) [%]	CHRF288-11 %inh (CHRF288-11) [%]	CMS %inh (CMS) [%]	M07e %inh (M07e) [%]	MV4-11 %inh (MV4-11) [%]	U937 %inh (U937) [%]
CCOC(=O)C1=C(C)NC(C)=C(C(=O)OCC)C1c1ccccc1/C=C/C(=O)OC(C)(C)C [SJ000541098-3, LACIDIPINE]	6.472	4.748	5.833	-0.4968	2.32	5.059	8.929	2.874								
CC1(COc2ccc(CC3SC(=O)NC3=O)cc2)CCCCC1 (centres unmarked) [SJ000546494-1, CIGLITAZONE]									0.5377	-0.9508	1.382	3.672	-1.931	-0.4942	4.011	0.7442
Cc1cccc(Nc2cc(Cl)nc(SCC(=O)O)n2)c1C [SJ000546497-1, WY 14643 | WY-14643 | WY-14643 (PIRINIXIC ACID)]									-0.2043	0.03488	1.805	0.5396	-0.6556	2.884	2.638	0.764
CC(C)(c1ccc(OCC2CO2)cc1)c1ccc(OCC2CO2)cc1 (centres unmarked) [SJ000546498-1, BADGE]									0.4379	-1.249	0.3622	3.756	-0.9549	-0.5797	2.685	-0.2101
Oc1ccc(-c2c(-c3ccccc3)nn3c(C(F)(F)F)cc(C(F)(F)F)nc23)cc1 [SJ000546500-1, PHTPP]									-2.936	-1.733	-0.1539	-1.975	-0.8785	-1.02	0.8155	-1.023
CCCCCS(=O)(=O)CCCCCCCCCCn1c(-c2ccc(O)cc2)c(C)c2cc(O)ccc21 [SJ000546504-1, ZK 164015]									21	28.37	14.83	8.284	7.105	14.67	19.87	10.37
CCC[C@@H]1CC2=CC(=O)CC[C@]2(C)[C@H]2CC[C@@]3(C)[C@@H](CC[C@@]34CCC(=O)O4)[C@H]12 [SJ000546508-1, RU 26752]									-5.773	-0.802	2.095	-0.7374	0.3867	0.5508	1.882	-0.3202
CCC[C@@H]1CC2=CC(=O)CC[C@]2(C)[C@H]2CC[C@@]3(C)[C@@H](CC[C@@]3(O)CCC(=O)O)[C@H]12 [SJ000546509-1, RU 28318]									5.542	5.695	3.121	5.992	2.41	2.635	0.6325	-0.6477
COC(=O)/C=C/c1cccc(N(Cc2ccc(-c3ccc(N(C)C)cc3)cc2)C(=O)C2CCCCC2)c1 [SJ000546510-1, FEXARAMINE]									-0.2535	-2.683	2.174	-3.158	0.8467	1.611	-0.6838	-1.175
Clc1ccc(-c2nc3sccn3c2/C=N/OCc2ccc(Cl)c(Cl)c2)cc1 [SJ000546521-1, CITCO]									-3.05	-1.049	-0.03995	8.549	0.2267	0.1835	0.01601	-0.9685
